Measurements from patent publication US20190343858A1, “METHOD OF REGULATING THE CIRCADIAN RHYTHM OF AN INDIVIDUAL COMPRISING ADMINISTERING AN EFFECTIVE AMOUNT OF A CIRCADIAN RHYTHM REGULATOR CONTAINING 1,2-DI-O-GALLOYL-4,6-O-(S)-HEXAHYDROXYDIPHENOYL-B-D-GLUCOSE” (ORYZA OIL & FAT CHEMICAL CO., LTD,, priority 2017, published 2019).

Test system: BMAL1 gene
Assay: Evaluation of the BMAL1 gene-expression-promotion activity (BMAL1 mRNA amount via reverse-transcribed cDNA)
Format: cell-based
Conditions: rat-muscle myoblasts C2Cl2, differentiation-induction, cultivated one week; 3 μg/mL; Dunnett, ** p<0.01
Method: Differentiation-induction was done to the rat-muscle myoblasts C2Cl2. At the same time, the purple-tea extract of 0.1, 1.0, 3.0 and 10 μg/mL, and the GHG of 0.1, 1.0 and 3 μg/mL, was respectively added to such myoblasts and cultivated for one week. After that, an RNA extraction was done to determine, by using a reverse-transcribed cDNA, the amount of mRNA and of the BMAL1 gene.
A significance-test was done by the Dunnett Method, and the double asterisk ** means p<0.01. Also, no active components were added to the “control,” but the purple-tea extract (GHG-content extract) was added to the “PTE.”

SMILES: O=C(OC1OC2COC(=O)c3cc(O)c(O)c(O)c3-c3c(cc(O)c(O)c3O)C(=O)OC2C(O)C1OC(=O)c1cc(O)c(O)c(O)c1)c1cc(O)c(O)c(O)c1 [GHG, 1,2-di-O-galloyl-4,6-O—(S)-hexahydroxydiphenoyl-ß-D-glucose]
- expression-level of the BMAL1 gene against the Control: significantly was seen to have increased
